The text below walks through data of patent US12252524B2, “GIP/GLP1 co-agonist compounds” (Eli Lilly and Company, priority 2018, dated 2025).

Molecules are shown by their SMILES. Numbered stars: 1 amine (or outer) side, 2 acyl side, 3 side chain; on linkers, the order of the positions; unused ones are H or OH. Square brackets hold non-standard residues; d marks the D form. Side chains are listed from the residue outwards. Peptide text beside a SMILES is read from it. * marks the point of attachment. C20 diacid = O=C(O)CCCCCCCCCCCCCCCCCCC(=O)*; γGlu = O=C(O)[C@H](CCC(=O)[*:2])N[*:1]; AEEA = NCCOCCOCC(=O)O; Aib = CC(C)(N)C(=O)O

Test [1] addresses T1, human Gcg receptor (Homo sapiens, UniProt P47871).
T1 construct: expressed in transfected cells; crude membranes
The experiment in a line: [125I]-Glucagon binding (SPA), human Gcg receptor. The following applies: read-out: hGLcgR Ki, nM (SEM, n). As to the method:
(§1) Two methods are used for the preparation of crude cell membranes.
(§2) Method 1: Frozen cell pellets are lysed on ice in hypotonic buffer containing 50 mM Tris HCl, pH 7.5, and Roche Complete™ Protease Inhibitors with EDTA. The cell suspension is disrupted using a glass Potter-Elvehjem homogenizer fitted with a Teflon® pestle for 25 strokes. The homogenate is centrifuged at 4° C. at 1100×g for 10 minutes. The supernatant is collected and stored on ice while the pellets are resuspended in homogenization buffer and rehomogenized as described above. The homogenate is centrifuged at 1100×g for 10 minutes. The second supernatant is combined with the first supernatant and centrifuged at 35000×g for 1 hour at 4° C. The resulting membrane pellet is resuspended in homogenization buffer containing protease inhibitors at approximately 1 to 3 mg/mL, quick frozen in liquid nitrogen and stored as aliquots in a−80° C. freezer until use.
(§3) Method 2: Frozen cell pellets are lysed on ice in hypotonic buffer containing 50 mM Tris HCl, pH 7.5, 1 mM MgCl2, Roche Complete™ EDTA-free Protease Inhibitors and 25 units/ml DNAse I (Invitrogen). The cell suspension is disrupted using a glass Potter-Elvehjem homogenizer fitted with a Teflon® pestle for 20 to 25 strokes. The homogenate is centrifuged at 4° C. at 1800×g for 15 minutes. The supernatant is collected and stored on ice while the pellets are resuspended in homogenization buffer (without DNAse I) and rehomogenized as described above. The homogenate is centrifuged at 1800×g for 15 minutes. The second supernatant is combined with the first supernatant and centrifuged an additional time at 1800×g for 15 minutes. The overall supernatant is then centrifuged at 25000×g for 30 minutes at 4° C. The resulting membrane pellet is resuspended in homogenization buffer (without DNAse I) containing protease inhibitors at approximately 1 to 3 mg/mL and stored as aliquots in a−80° C. freezer until use.
The human Gcg receptor binding assays are performed using a Scintillation Proximity Assay (SPA) format with wheat germ agglutinin (WGA) beads (Perkin Elmer). The binding buffer contains 25 mM 4-(2-hydroxyethyl)-1-piperazineethanesulfonic acid (HEPES), pH 7.4, 2.5 mM CaCl2, 1 mM MgCl2, 0.1% (w/v) bacitracin (Research Products), 0.003% (w/v) Polyoxyethylenesorbitan monolaurate (TWEEN©-20), and Roche Complete™ Protease Inhibitors without EDTA. […] Plates are sealed and mixed on a plate shaker (setting 6) for 1 minute and read with a PerkinElmer Trilux MicroBeta© scintillation counter after 12 hours of incubation/settling time at room temperature.
(§4) Data are analyzed using four-parameter (curve maximum, curve minimum, IC50, Hill slope) nonlinear regression routines (Genedata Screener, version 12.0.4, Genedata AG, Basal, Switzerland). […] Values for Ki are reported as the geometric mean, with error expressed as the standard error of the mean (SEM) and n is equal to the number of independent replicates (determined in assays performed on different days). […] The Ki Ratio is a rapid indication of the apparent affinity of a peptide compared to the native control peptide. […] SEM is only calculated when n=2 or greater non-qualified results exist. Means are expressed as GeoMetric means with the standard error of the mean (SEM) and the number of replicates (n) indicated in parenthesis.

The target of test [2] is T2, human GIP receptor (Homo sapiens, UniProt P48546).
T2 construct: expressed in transfected cells; crude membranes
T2 sequence (P48546 22-466): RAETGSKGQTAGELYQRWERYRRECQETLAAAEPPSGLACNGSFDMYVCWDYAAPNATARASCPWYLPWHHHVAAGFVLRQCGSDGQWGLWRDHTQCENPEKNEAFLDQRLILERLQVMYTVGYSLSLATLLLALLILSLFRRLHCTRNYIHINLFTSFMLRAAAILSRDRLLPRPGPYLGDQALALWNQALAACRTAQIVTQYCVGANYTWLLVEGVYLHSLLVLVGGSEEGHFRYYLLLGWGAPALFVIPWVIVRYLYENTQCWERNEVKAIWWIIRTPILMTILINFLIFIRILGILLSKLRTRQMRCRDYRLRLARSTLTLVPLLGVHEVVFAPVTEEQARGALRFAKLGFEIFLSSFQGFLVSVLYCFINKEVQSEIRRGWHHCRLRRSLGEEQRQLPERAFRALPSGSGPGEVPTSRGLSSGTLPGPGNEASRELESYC
The experiment in a line: [125I]-GIP binding (SPA), human GIP receptor. To be noted: read-out: hGIPR Ki, nM (SEM, n). The method, then: as §1, §2, §3
The binding buffer contains 25 mM HEPES, pH 7.4, 2.5 mM CaCl2, 1 mM MgCl2, 0.1% (w/v) bacitracin, 0.003% (w/v) TWEEN©-20, and Roche Complete™ Protease Inhibitors without EDTA. Peptides and GIP are thawed and 3 fold serially diluted in 100% DMSO (10 point concentration response curves). […] Plates are sealed and mixed on a plate shaker (setting 6) for 1 minute and read with a PerkinElmer Trilux MicroBeta© scintillation counter after 2.5 to 12 hours of incubation/settling time at room temperature.
as §4

Test [3] concerns the target human GLP-1 receptor (GLP-1R) (Homo sapiens, UniProt P43220). The test can be described thus: cAMP pharmacological functional assay in presence of casein, hGLP-1R. The format is cell-based. The following applies: HEK293 cells expressing hGLP-1R, 0.1% Casein, geometric mean; read-out: hGLP1R cAMP Rel EC50 nM (SEM, n).
The target of test [4] is T3, gastric inhibitory peptide receptor (GIPR) (Homo sapiens, UniProt P48546).
T3 sequence (P48546 22-466): T2 sequence (P48546 22-466)
The experiment in a line: cAMP pharmacological functional assay in presence of casein, hGIPR. The format is cell-based. The following applies: HEK293 cells expressing hGIPR, 0.1% Casein, geometric mean; read-out: hGIPR cAMP Rel EC50 nM (SEM, n).

For test [5], the target named is human GLP-1R (Homo sapiens, UniProt P43220). The test can be described thus: [125I]-GLP-1 binding (SPA), human GLP-1 receptor. Further details: expressed in transfected cells; crude membranes. The following applies: read-out: hGLP1R Ki, (nM) (SEM, n). As to the method:
as §1, §2, §3
The binding buffer contains 25 mM HEPES, pH 7.4, 2.5 mM CaCl2, 1 mM MgCl2, 0.1% (w/v) bacitracin, 0.003% (w/v) TWEEN©-20, and Roche Complete™ Protease Inhibitors without EDTA.
as §4

Sequence of human GLP-1R (P43220 24-463): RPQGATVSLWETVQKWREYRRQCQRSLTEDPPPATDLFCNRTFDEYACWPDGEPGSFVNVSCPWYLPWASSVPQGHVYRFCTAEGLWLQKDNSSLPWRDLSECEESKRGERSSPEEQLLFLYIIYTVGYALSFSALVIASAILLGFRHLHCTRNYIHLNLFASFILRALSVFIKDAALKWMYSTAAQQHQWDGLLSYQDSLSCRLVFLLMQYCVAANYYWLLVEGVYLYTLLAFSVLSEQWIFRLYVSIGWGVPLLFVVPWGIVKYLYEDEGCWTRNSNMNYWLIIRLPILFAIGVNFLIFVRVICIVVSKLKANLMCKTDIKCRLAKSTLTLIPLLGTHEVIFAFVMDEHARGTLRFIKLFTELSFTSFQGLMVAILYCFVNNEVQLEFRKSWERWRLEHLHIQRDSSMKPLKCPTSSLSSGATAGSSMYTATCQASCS
Sequence of human GLP-1 receptor (GLP-1R) (P43220 24-463): as above
T1 sequence (P47871 26-477): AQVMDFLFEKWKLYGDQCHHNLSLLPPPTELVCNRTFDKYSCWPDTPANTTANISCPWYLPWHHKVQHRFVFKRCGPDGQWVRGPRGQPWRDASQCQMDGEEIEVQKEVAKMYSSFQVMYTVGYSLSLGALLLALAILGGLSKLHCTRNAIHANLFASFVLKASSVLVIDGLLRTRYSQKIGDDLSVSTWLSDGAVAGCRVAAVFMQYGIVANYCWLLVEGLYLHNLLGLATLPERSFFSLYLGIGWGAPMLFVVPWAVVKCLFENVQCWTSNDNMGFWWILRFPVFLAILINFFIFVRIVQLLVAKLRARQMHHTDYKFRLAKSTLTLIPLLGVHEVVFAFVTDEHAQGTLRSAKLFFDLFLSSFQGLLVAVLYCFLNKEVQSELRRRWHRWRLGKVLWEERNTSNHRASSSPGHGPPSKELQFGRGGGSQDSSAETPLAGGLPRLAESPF

Consider `CC[C@H](C)[C@H](NC(=O)[C@H](CC(C)C)NC(=O)[C@H](Cc1ccc(O)cc1)NC(=O)[C@H](CCC(=O)O)NC(=O)[C@@H](NC(=O)[C@H](Cc1ccccc1)NC(=O)[C@H](C)NC(=O)C(C)(C)NC(=O)[C@H](CCC(N)=O)NC(=O)[C@H](C)NC(=O)[C@H](CCCCNC(=O)COCCOCCNC(=O)COCCOCCNC(=O)CC[C@H](NC(=O)CCCCCCCCCCCCCCCCCCC(=O)O)C(=O)O)NC(=O)[C@H](CO)NC(=O)[C@H](CC(=O)O)NC(=O)[C@H](CC(C)C)NC(=O)[C@H](CC(C)C)NC(=O)[C@@H](NC(=O)[C@H](CO)NC(=O)[C@H](Cc1ccc(O)cc1)NC(=O)[C@H](CC(=O)O)NC(=O)[C@H](CO)NC(=O)[C@@H](NC(=O)[C@H](Cc1ccccc1)NC(=O)[C@@H](NC(=O)CNC(=O)[C@H](CCC(=O)O)NC(=O)C(C)(C)NC(=O)[C@@H](N)Cc1ccc(O)cc1)[C@@H](C)O)[C@@H](C)O)[C@@H](C)CC)[C@@H](C)CC)C(=O)N[C@@H](CCC(=O)O)C(=O)NCC(=O)NCC(=O)N1CCC[C@H]1C(=O)N[C@@H](CO)C(=O)N[C@@H](CO)C(=O)NCC(=O)N[C@@H](C)C(=O)N1CCC[C@H]1C(=O)N1CCC[C@H]1C(=O)N1CCC[C@H]1C(=O)N[C@@H](CO)C(N)=O` [Example 9] (H-Y[Aib]EGTFTSDYSILLDSK([AEEA-AEEA-γGlu-C20 diacid])AQ[Aib]AFIEYLIEGGPSSGAPPPS-NH2), for which the inhibitory constant (Ki) in test [1] worked out at 375 nM; in test [2], 0.127 nM; in test [5], 14.9 nM. For the same compound, the 50% effective concentration (EC50) in test [3] was 0.194 nM; in test [4], 0.21 nM.
The matching figures for `CC[C@H](C)[C@H](NC(=O)[C@H](CO)NC(=O)[C@H](CC(=O)O)NC(=O)[C@H](CC(C)C)NC(=O)[C@H](CC(C)C)NC(=O)[C@@H](NC(=O)[C@H](CO)NC(=O)[C@H](Cc1ccc(O)cc1)NC(=O)[C@H](CC(=O)O)NC(=O)[C@H](CO)NC(=O)[C@@H](NC(=O)[C@H](Cc1ccccc1)NC(=O)[C@@H](NC(=O)CNC(=O)[C@H](CCC(=O)O)NC(=O)C(C)(C)NC(=O)[C@@H](N)Cc1ccc(O)cc1)[C@@H](C)O)[C@@H](C)O)[C@@H](C)CC)C(=O)N[C@@H](C)C(=O)N[C@@H](CCC(N)=O)C(=O)NC(C)(C)C(=O)N[C@@H](C)C(=O)N[C@@H](Cc1ccccc1)C(=O)N[C@H](C(=O)N[C@@H](CCCCNC(=O)COCCOCCNC(=O)COCCOCCNC(=O)CC[C@H](NC(=O)CCCCCCCCCCCCCCCCCCC(=O)O)C(=O)O)C(=O)N[C@@H](Cc1ccc(O)cc1)C(=O)N[C@@H](CC(C)C)C(=O)N[C@@H](CC(C)C)C(=O)N[C@@H](C)C(=O)NC(C)(C)C(=O)NCC(=O)N1CCC[C@H]1C(=O)N[C@@H](CO)C(=O)N[C@@H](CO)C(=O)NCC(=O)N[C@@H](C)C(=O)N1CCC[C@H]1C(=O)N1CCC[C@H]1C(=O)N1CCC[C@H]1C(=O)N[C@@H](CO)C(N)=O)[C@@H](C)CC` [Example 10] (H-Y[Aib]EGTFTSDYSILLDSIAQ[Aib]AFIK([AEEA-AEEA-γGlu-C20 diacid])YLLA[Aib]GPSSGAPPPS-NH2): 226 nM, 0.109 nM, 9.33 nM, 7.64 nM and 1.28 nM.
Regarding `CC[C@H](C)[C@H](NC(=O)[C@H](CO)NC(=O)[C@H](CC(=O)O)NC(=O)[C@H](CC(C)C)NC(=O)[C@H](CC(C)C)NC(=O)[C@@H](NC(=O)[C@H](CO)NC(=O)[C@H](Cc1ccc(O)cc1)NC(=O)[C@H](CC(=O)O)NC(=O)[C@H](CO)NC(=O)[C@@H](NC(=O)[C@H](Cc1ccccc1)NC(=O)[C@@H](NC(=O)CNC(=O)[C@H](CCC(=O)O)NC(=O)C(C)(C)NC(=O)[C@@H](N)Cc1ccc(O)cc1)[C@@H](C)O)[C@@H](C)O)[C@@H](C)CC)C(=O)N[C@@H](C)C(=O)N[C@@H](CCC(N)=O)C(=O)NC(C)(C)C(=O)N[C@@H](C)C(=O)N[C@@H](Cc1ccccc1)C(=O)N[C@H](C(=O)N[C@@H](CCC(=O)O)C(=O)N[C@@H](Cc1ccc(O)cc1)C(=O)N[C@@H](CC(C)C)C(=O)N[C@@H](CC(C)C)C(=O)N[C@@H](CCCCNC(=O)COCCOCCNC(=O)COCCOCCNC(=O)CC[C@H](NC(=O)CCCCCCCCCCCCCCCCCCC(=O)O)C(=O)O)C(=O)NC(C)(C)C(=O)NCC(=O)N1CCC[C@H]1C(=O)N[C@@H](CO)C(=O)N[C@@H](CO)C(=O)NCC(=O)N[C@@H](C)C(=O)N1CCC[C@H]1C(=O)N1CCC[C@H]1C(=O)N1CCC[C@H]1C(=O)N[C@@H](CO)C(N)=O)[C@@H](C)CC` [Example 11] (H-Y[Aib]EGTFTSDYSILLDSIAQ[Aib]AFIEYLLK([AEEA-AEEA-γGlu-C20 diacid])[Aib]GPSSGAPPPS-NH2), the Ki in test [1] is 174 nM; in test [2], 0.226 nM; in test [5] it was 15.7 nM. The values for the EC50 in test [3] and in test [4] were 6.89 nM and 0.486 nM, respectively.
As to `CC[C@H](C)[C@H](NC(=O)[C@H](CCCCN)NC(=O)[C@H](CC(=O)O)NC(=O)[C@H](CC(C)C)NC(=O)[C@H](CC(C)C)NC(=O)[C@@H](NC(=O)[C@H](CO)NC(=O)[C@H](Cc1ccc(O)cc1)NC(=O)[C@H](CC(=O)O)NC(=O)[C@H](CO)NC(=O)[C@@H](NC(=O)[C@H](Cc1ccccc1)NC(=O)[C@@H](NC(=O)CNC(=O)[C@H](CCC(=O)O)NC(=O)C(C)(C)NC(=O)[C@@H](N)Cc1ccc(O)cc1)[C@@H](C)O)[C@@H](C)O)[C@@H](C)CC)C(=O)N[C@@H](C)C(=O)N[C@@H](CCC(N)=O)C(=O)N[C@@H](CCCCNC(=O)COCCOCCNC(=O)COCCOCCNC(=O)CC[C@H](NC(=O)CCCCCCCCCCCCCCCCCCC(=O)O)C(=O)O)C(=O)N[C@@H](C)C(=O)N[C@@H](Cc1ccccc1)C(=O)N[C@H](C(=O)N[C@@H](CCC(=O)O)C(=O)N[C@@H](Cc1ccc(O)cc1)C(=O)N[C@@H](CC(C)C)C(=O)N[C@H](C(=O)N[C@@H](CCC(=O)O)C(=O)NCC(=O)NCC(=O)N1CCC[C@H]1C(=O)N[C@@H](CO)C(=O)N[C@@H](CO)C(=O)NCC(=O)N[C@@H](C)C(=O)N1CCC[C@H]1C(=O)N1CCC[C@H]1C(=O)N1CCC[C@H]1C(=O)N[C@@H](CO)C(N)=O)[C@@H](C)CC)[C@@H](C)CC` [Example 12] (H-Y[Aib]EGTFTSDYSILLDKIAQK([AEEA-AEEA-γGlu-C20 diacid])AFIEYLIEGGPSSGAPPPS-NH2; N-terminus assumed), the Ki in test [1] came out at 684 nM; in test [2], 0.167 nM; in test [5], 12.9 nM. The figures for the EC50 in test [3] and in test [4] were 1.15 nM and 0.3 nM, respectively.

The Ki is the equilibrium dissociation constant of an inhibitor or competing ligand from its target. By EC50 is commonly meant the concentration that produces a half-maximal response.
